Reference: US7531509B2, “Papillosin antimicrobial peptide, a gene coding said peptide, a vector, a transformed organism and a compound containing said organism” (Centre National de la Recherche Scientifique—CNRS, priority 2003, dated 2009)
No end group written: not given here.

Experiments:
[1] = tested on: gram-positive and gram-negative bacteria; test: Spectrum of antibacterial activity (summary); format: cell-based; conditions: on gram-positive and gram-negative bacteria
Procedure: (§1) Complementary tests were carried out to determine the spectrum of activity of papillosin. The minimal bactericidal concentration (MBC) for each bacterial strain tested is determined as follows: The peptide is placed in a solution containing 0.01% acetic acid and 0.2% bovine serum albumin (BSA), then, serial dilutions of 2 2 are realized in the same 0.01% solution of acetic acid and 0.2% BSA. 10 μl of each dilution are incubated in sterile 96-well plates (Becton Dickinson, USA, ref: 18572) in the presence of 100 μl of a bacterial suspension brought to an optical density of 0.001 at 600 nm in the Mueller Hinton environment (MLHB, SIGMA, ref: M-9677).
(§2) The bacterial growth is monitored after 18 hours of incubation under agitation. The MBC is determined by spreading out the content of the first three wells in which no bacterial growth was observed. This spreading out was carried out on Petri dishes on which an agar was poured prepared from the Mueller Hinton environment. These dishes were then incubated 18 hours. The MBC corresponds to the lowest concentration of peptide for which no bacterial colony was observed on the incubated dishes.

M. luteus = format: cell-based; conditions: 18 h
Procedure: as §1, §2

For “GFWKKVGSAAWGGVKAAAKGAAVGGLNALAKHIQ [papillosin]”, the bacteriolytic activity [1] was “powerful bacteriolytic activity” and the MBC (M. luteus) was 0.125 to 0.25 µM.
